One assay relates to Klebsiella pneumoniae. Put plainly: Minimum growth inhibiting concentration, agar plate method. The class given is cell-based. As to conditions: for Minimum growth inhibiting concentration: strain resistant to the respective drug. On the procedure:
(§1) The drug-resistant strains of bacterial species were obtained in the manner described below according to the concentration gradient plate culture (see "Chemotherapeutics and Resistant Bacteria", 1970, By Chikara Watanabe, Asakura Shoten).
(§2) The agar plates with drug concentration gradient ranging from 10 to 100 μg/ml were prepared, and each strain of the bacterial species to be tested was streaked or smeared. These plates were kept at 37° C. for several days and the colony formed in the high concentration area was isolated and again similarly inoculated to the plates. Such operation was repeated several times to obtain the bacterial strains resistant to the respective drugs.
(§3) The drug sensitivity of the drug-resistant strains and that of the original strains (sensitive strains) were compared by way of the minimum growth inhibiting concentration (hereinafter abbreviated as MIC) according to the Standard Method of the Japanese Chemotherapeutical Association (see "Chemotherapy" Vol. 22, No. 6, 1126 (1974), by MIC Determination Method Reform Committee). More specifically, double diluted systems of each drug were prepared and they were mixed with the heart-infusion agar medium (Nippon Eiyo Kagaku Co., Ltd.) to form the agar plates. Then a loopful of each strain, which had been cultured at 37° C. in Trypto-soy bouillon (Nippon Eiyo Kagaku Co., Ltd.) for 18 hr. was smeared on each the plate, and after culturing for 18 hr. at 37° C., the growth of the strain on each plate was examined.
(§4) The amount of the present substance added is more than 10 μg/ml, preferably more than 100 μg/ml. The pH of the medium was maintained at 7.2±0.1 so that MIC would not be affected by pH of the medium.
(§5) Specimens of the drug-resistant bacterial strain were obtained according to the aforementioned concentration-gradient plate culture by using Staphylococcus aureus, Streptococcus faecalis, Escherichia coli, Salmonella enteritidis, Klebsiella pneumoniae and Pseudomonas aeruginosa.

The subject of the next assay is Staphylococcus aureus. Described as above. The class given is cell-based. The settings on record: for Minimum growth inhibiting concentration: strain resistant to the respective drug. On the procedure:
as §1, §2, §3, §4, §5

For another assay, the system named is Salmonella enteritidis. Described as above. The class given is cell-based. As to conditions: for Minimum growth inhibiting concentration: strain resistant to the respective drug. The procedure:
as §1, §2, §3
(§6) MIC has apparently been reduced to half the level or less before addition of the present substance as will be seen in Table 3 of EXAMPLE 1. The amount of the present substance added is more than 10 μg/ml, preferably more than 100 μg/ml. The pH of the medium was maintained at 7.2±0.1 so that MIC would not be affected by pH of the medium.
(§7) Specimens of the drug-resistant bacterial strain were obtained according to the aforementioned concentration-gradient plate culture by using Staphylococcus aureus, Streptococcus faecalis, Escherichia coli, Salmonella enteritidis, Klebsiella pneumoniae and Pseudomonas aeruginosa. The MICs of the original bacterial strains and those of the bacterial strains which have developed resistance to the respective antibiotics are summarized in Table 2.

For a further assay, the system named is Escherichia coli. The assay is described as above. The class given is cell-based. As to conditions: for Minimum growth inhibiting concentration: strain resistant to the respective drug. On the procedure:
as §1, §2, §3, §6, §7

Assay [1] has as its system chloramphenicol-resistant strain of Salmonella enteritidis. Put plainly: Therapeutical test in mice infected with chloramphenicol-resistant Salmonella enteritidis (Example 6). The class given is in vivo, male ICR-JCL mouse. The settings on record: chloramphenicol alone 50 mg/kg i.p., 5 days after administration. The procedure:
The following experiment was then carried out on the present substance having the above-mentioned properties.
The chloramphenicol-resistant strain of Salmonella enteritidis were obtained as in Example 1.
A quarter milli-liter of suspension of the aforementioned chloramphenicol-resistant bacterial strain in Tryptosoy-bouillon (see Example 2) including 5% of mucin was intraperitoneally inoculated to each mouse of 5 groups of male ICR-JCL mouse, the group consisting of 10 mice. The inoculum was 1×10^8 cells/mouse. Twenty five hours after the inoculation, 50 mg/kg of chloramphenicol was administered intraperitoneally. 500 mg/kg of the present substance was further given orally to another group. The rate of survival 5 days after the administration was 40% in the group where chloramphenicol alone was administered, while it was 80% in the group where the antibiotic was given in combination with the present substance.

The subject of assay [2] is Streptococcus faecalis resistant to erythromycin. The assay is described as follows: Therapeutical treatment of mice infected with erythromycin-resistant Streptococcus faecalis (Example 9). The settings on record: only erythromycin 50 mg/kg oral, 7th day. The class given is in vivo, male ICR-JCL mice. On the procedure: Experiments of therapeutical treatment of animals infected with an erythromycin-resistant bacterial strain were carried out using the present substance, i.e., a nitrogen-containing polysaccharide prepared by the procedures described in Example 1.
After keeping the mice under usual conditions for 6 days, the rate of survival of each mouse was observed on 7th day.

The test system of assay [3] is streptomycin resistant strain of Klebsiella pneumoniae. The assay is described as follows: Therapeutical test in mice infected with streptomycin-resistant Klebsiella pneumoniae (Example 7). The settings on record: streptomycin singly 100 mg/kg i.p., 6 days after administration. The class given is in vivo, male ICR-JCL mouse. The procedure: The streptomycin resistant strain of Klebsiella pneumoniae was obtained by the procedure of Exampe 1 and 0.25 ml of a Trypto-soy bouillon (see Example 2) containing 5% of mucin and the bacterial strain was intraperitoneally inoculated to each mouse of 2 groups of male ICR-JCL mouse, the group consisting of 10 mice at the rate of 1×10^8 cells per mouse. Three hours after this inoculation, 100 mg/kg of streptomycin was intraperitoneally administered. Another group was further given 120 mg/kg of the present substance, obtained by the description in Example 6, via intraperitoneal administration. The survival rate 6 days after administration was 50% in the group where streptomycin was used singly, but it was as high as 80% in the group where the present substance was used with streptomycin.

Another assay has as its system Streptococcus faecalis. Put plainly: Minimum growth inhibiting concentration, agar plate method. The class given is cell-based. As to conditions: for Minimum growth inhibiting concentration: strain resistant to the respective drug. The procedure: as §1, §2, §3, §6, §7
In assay [4] the test system is colistin-resistant strain of Pseudomonas aeruginosa. The assay is described as follows: Therapeutical test in mice infected with colistin-resistant Pseudomonas aeruginosa (Example 8). The class given is in vivo, male ICR-JCL mice. As to conditions: single colistin 190 mg/kg i.p., 6 days after administration. The procedure:
A quarter milli-liter of a suspension of the colistin-resistant strain of Pseudomonas aeruginosa cultured by the same procedure in Example 1 in Trypto-soy bouillon (see Example 2) including 5% of mucin was intraperitoneally inoculated to each mouse of 2 groups of male ICR-JCL mice (body weight: 22±1 g, 10 mice a group) at the rate of 1×10^8 cells/mouse. […] The present substance obtained by the same procedure as in Example 6 was also orally administered at a dose of 1,500 mg/kg.

The test system of another assay is Pseudomonas aeruginosa. The assay is described as follows: Minimum growth inhibiting concentration, agar plate method. The settings on record: for Minimum growth inhibiting concentration: strain resistant to the respective drug. The class given is cell-based. On the procedure:
as §1, §2, §3, §4, §5

Setting [5] is: strain resistant to the respective antibiotic (Table 2).
[6] abbreviates: present substance added at 100 μg/ml.
The mark [7] stands for this setting: present substance not added (Table 3).
Setting [8] is: present substance added at 1000 μg/ml.

On to `O=C(N[C@H](CO)[C@H](O)c1ccc([N+](=O)[O-])cc1)C(Cl)Cl` [CP, Chlorampheniocol], for which the “Minimum growth inhibiting concentration (MIC)” value in the assay with Klebsiella pneumoniae (original strain) was found to be 0.8 µg/mL; in the assay on Klebsiella pneumoniae (setting [5]), 25 µg/mL; in the assay with Staphylococcus aureus (original strain), 3.1 µg/mL; with Staphylococcus aureus (setting [5]), 25 µg/mL; in the assay with Salmonella enteritidis (original strain), 0.8 µg/mL; in the assay with Salmonella enteritidis (setting [5]), 12.5 µg/mL. Also, the “Minimum growth inhibiting concentration (MIC)” value with Escherichia coli (original strain) was 1.6 µg/mL; in the assay with Escherichia coli (setting [5]), 50 µg/mL. Also, the “Minimum growth inhibiting concentration” value with Klebsiella pneumoniae (setting [6]) was 6.3 µg/mL; with Klebsiella pneumoniae (setting [7]), 25 µg/mL; with Staphylococcus aureus (setting [6]) it was 6.3 µg/mL; with Staphylococcus aureus (setting [7]), 25 µg/mL; in the assay with Salmonella enteritidis (setting [6]) it was 3.2 µg/mL; in the assay with Salmonella enteritidis (setting [7]), 12.5 µg/mL. Moreover, the “Minimum growth inhibiting concentration” value with Escherichia coli (setting [6]) was 12.5 µg/mL; in the assay on Escherichia coli (setting [7]) it was 50 µg/mL. Further, in assay [1], the rate of survival stood at 40%.
With `CC[C@H]1OC(=O)[C@H](C)[C@@H](O[C@H]2C[C@@](C)(OC)[C@@H](O)[C@H](C)O2)[C@H](C)[C@@H](O[C@@H]2O[C@H](C)C[C@H](N(C)C)[C@H]2O)[C@](C)(O)C[C@@H](C)C(=O)[C@H](C)[C@@H](O)[C@]1(C)O` [EM, Erythromycin], the “Minimum growth inhibiting concentration (MIC)” value with Klebsiella pneumoniae (setting [5]) was > 100 µg/mL; in the assay on Staphylococcus aureus (original strain) it was 0.4 µg/mL; in the assay with Salmonella enteritidis (original strain) it was > 100 µg/mL; in the assay on Escherichia coli (original strain) it was > 100 µg/mL. The “Minimum growth inhibiting concentration” value with Staphylococcus aureus (setting [8]) was found to be 3.2 µg/mL. In assay [2], this compound came in with a rate of survival of 50%.
Regarding `CC1(C)S[C@@H]2[C@H](NC(=O)Cc3ccccc3)C(=O)N2[C@H]1C(=O)O` [PG, Penicillin G], the “Minimum growth inhibiting concentration (MIC)” value is 6.3 µg/mL in the assay on Klebsiella pneumoniae (original strain); > 100 µg/mL in the assay on Klebsiella pneumoniae (setting [5]); 0.025 µg/mL with Staphylococcus aureus (original strain); 12.5 µg/mL with Staphylococcus aureus (setting [5]); 6.3 µg/mL in the assay on Salmonella enteritidis (original strain); > 100 µg/mL with Salmonella enteritidis (setting [5]). Also, the “Minimum growth inhibiting concentration (MIC)” value in the assay with Escherichia coli (original strain) is 12.5 µg/mL; in the assay with Escherichia coli (setting [5]), > 100 µg/mL. In addition, the “Minimum growth inhibiting concentration” value in the assay with Staphylococcus aureus (setting [8]) came to 1.6 µg/mL; with Staphylococcus aureus (setting [7]), 12.5 µg/mL.
For the compound `[H]/N=C(/N)N[C@H]1[C@H](O)[C@@H](O)[C@H](O[C@@H]2O[C@@H](C)[C@](O)(C=O)[C@H]2O[C@@H]2O[C@@H](CO)[C@H](O)[C@@H](O)[C@@H]2NC)[C@@H](N/C(N)=N\[H])[C@@H]1O` [SM, Streptomycin], the “Minimum growth inhibiting concentration (MIC)” value in the assay with Klebsiella pneumoniae (original strain) was 1.6 µg/mL; in the assay with Klebsiella pneumoniae (setting [5]) it was 100 µg/mL; with Staphylococcus aureus (original strain), 1.6 µg/mL; in the assay with Staphylococcus aureus (setting [5]), > 100 µg/mL; in the assay on Salmonella enteritidis (original strain) it was 25 µg/mL; with Salmonella enteritidis (setting [5]), > 100 µg/mL. In addition, the “Minimum growth inhibiting concentration (MIC)” value was found to be 3.1 µg/mL in the assay with Escherichia coli (original strain) and 100 µg/mL in the assay on Escherichia coli (setting [5]). Also, the “Minimum growth inhibiting concentration” value was determined as 25 µg/mL with Klebsiella pneumoniae (setting [8]), 100 µg/mL in the assay on Klebsiella pneumoniae (setting [7]), 25 µg/mL in the assay on Escherichia coli (setting [8]) and 100 µg/mL with Escherichia coli (setting [7]). This compound also registered a survival rate in assay [3] of 50%.
With `CN(C)[C@@H]1C(O)=C(C(N)=O)C(=O)[C@@]2(O)C(O)=C3C(=O)c4c(O)cccc4[C@@](C)(O)[C@H]3C[C@@H]12` [TC, Tetracycline], the “Minimum growth inhibiting concentration (MIC)” value in the assay with Klebsiella pneumoniae (original strain) was found to be 1.6 µg/mL; in the assay on Klebsiella pneumoniae (setting [5]), 25 µg/mL; in the assay on Staphylococcus aureus (original strain), 0.8 µg/mL; in the assay on Staphylococcus aureus (setting [5]) it was 25 µg/mL; in the assay with Streptococcus faecalis (original strain), 0.4 µg/mL; with Streptococcus faecalis (setting [5]) it was 25 µg/mL. For the same compound, the “Minimum growth inhibiting concentration (MIC)” value was 1.6 µg/mL in the assay on Salmonella enteritidis (original strain), 12.5 µg/mL in the assay on Salmonella enteritidis (setting [5]), 3.1 µg/mL with Escherichia coli (original strain) and 25 µg/mL in the assay on Escherichia coli (setting [5]). Moreover, the “Minimum growth inhibiting concentration” value amounted to 12.5 µg/mL in the assay with Klebsiella pneumoniae (setting [6]); 25 µg/mL in the assay with Klebsiella pneumoniae (setting [7]); 3.2 µg/mL in the assay on Staphylococcus aureus (setting [6]); 25 µg/mL in the assay on Staphylococcus aureus (setting [7]); 6.3 µg/mL with Streptococcus faecalis (setting [6]); 25 µg/mL in the assay with Streptococcus faecalis (setting [7]). Besides, the “Minimum growth inhibiting concentration” value in the assay on Salmonella enteritidis (setting [6]) was determined as 6.3 µg/mL; with Salmonella enteritidis (setting [7]), 12.5 µg/mL; in the assay with Escherichia coli (setting [6]) it was 6.3 µg/mL; in the assay with Escherichia coli (setting [7]) it was 25 µg/mL.
In the case of Colistin [CL], the rate of survival in [4] is recorded as 40%. In addition, the “Minimum growth inhibiting concentration (MIC)” value in the assay on Pseudomonas aeruginosa (setting [5]) came out at 200 µg/mL. The “Minimum growth inhibiting concentration” value with Pseudomonas aeruginosa (setting [8]) was 100 µg/mL; with Pseudomonas aeruginosa (setting [7]), 200 µg/mL.

These data come from US4268505A, “Pharmaceutical composition comprising a nitrogen-containing polysaccharide and an antibiotic agent, and a method of treating an infectious disease therewith” (priority 1979, dated 1981).
